The values that follow come from ChEMBL document CHEMBL1201862, “PubChem BioAssay data set” (2004).

Some test systems named below: 786-0; A498; ACHN; CAKI-1; IGROV-1; LOX IMVI; M14; MCF7; MDA-MB-435; NCI-H460; OVCAR-8; RPMI-8226; SF-539; SK-MEL-28; SK-MEL-2; SK-MEL-5; SK-OV-3; SW-620; U-251.
Common to all, as to assay: growth of human tumour cells (NCI), 48 h

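Where inhibition never reached the appropriate level, the endpoint shown equals the highest concentration tested. Otherwise, values were interpolated linearly from a five-concentration, 48-hour dose response in 96-well plates. The concentration for 50% growth inhibition is given as GI50.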 Activity calls are given as the source filed them. Cut-off read from the data, not from the text of the source: active = GI50 up to about 1.1 µM and inactive = higher. Positions of bridges follow the written chain, without caps; N, C: chain ends. Non-standard residues stand in square brackets, D forms with d. Residues, ends and D or L forms follow the SMILES beside them. ξ: configuration not given here. *: point of attachment. X28 = O=C(/C=C/C=C/C=C/C=C/C=C/C(=O)*)NC1=C(O)CCC1=O; Pro(4R-Me) = C[C@H]1CN[C@H](C(=O)O)C1; NMeA = CN[C@@H](C)C(=O)O; ξF = NC(Cc1ccccc1)C(=O)O; ξA = CC(N)C(=O)O Bounds are passed on as bounds.

With `COc1ccc(-c2cc(-c3ccccc3)nc3c2CC(=O)Nc2ccccc2-3)cc1OC`, the GI50 in the assay with 786-0 was 4.79 µM (inactive); with A498 it was 1.89 µM (inactive); in the assay on ACHN, 4.67 µM (inactive); in the assay on CAKI-1, > 100 µM (inactive); with IGROV-1, > 100 µM (inactive); in the assay on LOX IMVI, 2 µM (inactive). The GI50 in the assay with M14 was > 100 µM (inactive); in the assay with MCF7 it was > 20 µM (inactive); with MDA-MB-435 it was > 100 µM (inactive); in the assay on NCI-H460 it was > 100 µM (inactive); with OVCAR-8 it was 0.125 µM (active); with RPMI-8226 it was > 100 µM (inactive). Besides, the GI50 in the assay with SF-539 is 13.9 µM (inactive); in the assay on SK-MEL-28 it was > 100 µM (inactive); with SK-MEL-2, > 100 µM (inactive); in the assay on SK-MEL-5 it was 68.5 µM (inactive); in the assay on SK-OV-3, 5.74 µM (inactive); with SW-620, > 21.4 µM (inactive). Also, in the assay with U-251, the GI50 was 4.17 µM (inactive).
For `OC(CCNCc1ccccc1)c1ccc2ccccc2c1` (centres undefined), the GI50 was 20.1 µM (inactive) with 786-0; 19.4 µM (inactive) in the assay on A498; 18.3 µM (inactive) in the assay with ACHN; 21.8 µM (inactive) with CAKI-1; 16 µM (inactive) in the assay with IGROV-1; 13.5 µM (inactive) with LOX IMVI. In addition, the GI50 in the assay with M14 was 36.1 µM (inactive); with MCF7 it was 24.9 µM (inactive); in the assay on MDA-MB-435 it was 23 µM (inactive); with NCI-H460, 17.3 µM (inactive); with OVCAR-8, 23.3 µM (inactive); in the assay on RPMI-8226, 23.8 µM (inactive). For the same compound, the GI50 with SF-539 was 16.9 µM (inactive); in the assay on SK-MEL-28, 18.4 µM (inactive); in the assay with SK-MEL-2 it was 20.5 µM (inactive); in the assay with SK-MEL-5 it was 17.2 µM (inactive); with SW-620 it was 19.7 µM (inactive); in the assay with U-251 it was 16.9 µM (inactive).
As for `Cc1ccc(-c2cc[n+]3c(n2)oc2ccccc23)cc1`, the GI50 in the assay on 786-0 is 14.7 µM (inactive); with A498, 19.1 µM (inactive); in the assay on ACHN, 28.6 µM (inactive); in the assay on CAKI-1, 41.5 µM (inactive); in the assay with IGROV-1, 26.8 µM (inactive); in the assay with LOX IMVI, 35.7 µM (inactive). In addition, the GI50 with M14 is 25.9 µM (inactive); in the assay with MCF7, 30.8 µM (inactive); in the assay with MDA-MB-435 it was 24.7 µM (inactive); in the assay on NCI-H460, 72.8 µM (inactive); in the assay on OVCAR-8 it was 21.2 µM (inactive); in the assay with RPMI-8226, 12.5 µM (inactive). Moreover, the GI50 in the assay with SF-539 is 25.1 µM (inactive); with SK-MEL-28 it was 22.1 µM (inactive); with SK-MEL-2, 22.8 µM (inactive); in the assay with SK-OV-3 it was 33.6 µM (inactive); in the assay on SW-620 it was 8.93 µM (inactive); in the assay on U-251 it was 36.7 µM (inactive).
Consider `COP(=O)(OC)C1=c2c(C)noc2=C2C=COC2C1=O` (centres undefined), for which the GI50 with 786-0, in the assay with A498, in the assay with ACHN, in the assay with CAKI-1, with IGROV-1 and with LOX IMVI was > 100 µM (inactive) throughout. Moreover, the GI50 in the assay on M14, in the assay on MCF7, in the assay on MDA-MB-435, in the assay on OVCAR-8, with RPMI-8226 and in the assay on SF-539 was > 100 µM (inactive) throughout. The GI50 in the assay with SK-MEL-2, in the assay with SK-MEL-5, in the assay on SK-OV-3, in the assay on SW-620 and in the assay on U-251 was > 100 µM (inactive) each time.
As for `CC1NC(=O)[C@H](C)N(C)C(=O)[C@@H]2CCCN2C(=O)[C@@H](NC(=O)C(Cc2ccccc2)NC(=O)/C=C/C=C/C=C/C=C/C=C/C(=O)NC2=C(O)CCC2=O)COC(=O)[C@@H]2C[C@@H](C)CN2C1=O` (stereo partly drawn) (X28-[ξF]SP[NMeA][ξA][Pro(4R-Me)]; ester 2-C), the GI50 in the assay on 786-0, in the assay with A498, with ACHN, in the assay with CAKI-1, in the assay with IGROV-1 and in the assay with LOX IMVI was > 100 µM (inactive) throughout. For the same compound, the GI50 in the assay with M14, in the assay with MCF7, in the assay on MDA-MB-435, in the assay on NCI-H460, with RPMI-8226 and in the assay on SF-539 was > 100 µM (inactive) throughout. Moreover, the GI50 in the assay on SK-MEL-28, in the assay on SK-MEL-2, in the assay with SK-MEL-5, in the assay with SK-OV-3, in the assay on SW-620 and with U-251 was > 100 µM (inactive) each time.
Take `Cc1ccc(S(=O)(=O)N(CC(O)COc2ccccc2)c2c(F)cccc2F)cc1` (centres undefined): the GI50 in the assay on 786-0 was 20.7 µM (inactive); in the assay on A498, 19.6 µM (inactive); in the assay on ACHN it was 17.3 µM (inactive); in the assay with CAKI-1 it was 14.3 µM (inactive); in the assay on LOX IMVI, 15.2 µM (inactive); with M14, 15.5 µM (inactive). For the same compound, the GI50 was 15.7 µM (inactive) with MCF7; 15.4 µM (inactive) in the assay on MDA-MB-435; 15.1 µM (inactive) in the assay on NCI-H460; 17 µM (inactive) with OVCAR-8; 14.4 µM (inactive) in the assay on RPMI-8226; 16.9 µM (inactive) in the assay with SF-539. Also, the GI50 in the assay on SK-MEL-28 is 16.3 µM (inactive); with SK-MEL-2, 16.6 µM (inactive); with SK-MEL-5, 13.8 µM (inactive); in the assay on SK-OV-3 it was 18.5 µM (inactive); in the assay on SW-620, 23 µM (inactive); in the assay on U-251, 15.7 µM (inactive).
On to `O=[N+]([O-])C(/C(Cl)=C(/Cl)N1CCCCC1)=C1\NCCO1`, for which the GI50 in the assay on 786-0, in the assay on A498, in the assay on ACHN, in the assay on CAKI-1, in the assay on M14 and in the assay on MCF7 was > 100 µM (inactive) each time. For the same compound, the GI50 in the assay with MDA-MB-435, in the assay on NCI-H460, in the assay with OVCAR-8, in the assay with RPMI-8226, with SF-539 and in the assay with SK-MEL-28 was > 100 µM (inactive) throughout. The GI50 in the assay with SK-MEL-2, with SK-OV-3, with SW-620 and in the assay with U-251 was > 100 µM (inactive) throughout.
On to `Cn1c(N(CCO)CCO)cnc1[N+](=O)[O-]`, for which the GI50 with 786-0, in the assay with A498, in the assay with ACHN, in the assay with CAKI-1, in the assay on IGROV-1 and with LOX IMVI was > 100 µM (inactive) each time. The GI50 in the assay on M14, with MCF7, with MDA-MB-435, in the assay with NCI-H460, in the assay with OVCAR-8 and in the assay with RPMI-8226 was > 100 µM (inactive) throughout. The GI50 in the assay on SF-539, with SK-MEL-2, in the assay with SK-MEL-5, in the assay on SK-OV-3, in the assay with SW-620 and in the assay on U-251 was > 100 µM (inactive) throughout.
With `COc1ccc(OC)c([N+](=O)[O-])c1-c1nc2sc(C)c(C)n2c1/C=N/N=C(N)N`, the GI50 in the assay with 786-0 is > 100 µM (inactive); with A498, > 100 µM (inactive); in the assay with ACHN, > 100 µM (inactive); in the assay on CAKI-1, > 100 µM (inactive); with IGROV-1 it was 27.3 µM (inactive); with LOX IMVI, 49 µM (inactive). The GI50 is 76.7 µM (inactive) with M14; 24 µM (inactive) with MCF7; 43.1 µM (inactive) in the assay on MDA-MB-435; 91.6 µM (inactive) in the assay with NCI-H460; > 100 µM (inactive) in the assay on OVCAR-8; 32.4 µM (inactive) in the assay with RPMI-8226. The GI50 in the assay with SF-539 was > 100 µM (inactive); with SK-MEL-28 it was 54.5 µM (inactive); with SK-MEL-2, 21.3 µM (inactive); with SK-MEL-5, 34.5 µM (inactive); in the assay on SW-620, 66.4 µM (inactive); with U-251, 49.7 µM (inactive).
Consider `Cc1cc(N(CCC#N)CCC#N)ccc1C(/N=N/c1ccccc1)=N\NC(=O)c1ccccc1`, for which the GI50 with 786-0 is 25.5 µM (inactive); with A498 it was 24.6 µM (inactive); with ACHN, 16.4 µM (inactive); in the assay on CAKI-1 it was 28.2 µM (inactive); in the assay on IGROV-1, 28.2 µM (inactive); in the assay with M14, 69 µM (inactive). Also, the GI50 is 18.6 µM (inactive) in the assay on MCF7; 8.04 µM (inactive) in the assay on MDA-MB-435; 29.3 µM (inactive) with NCI-H460; 24.3 µM (inactive) in the assay on OVCAR-8; 42.7 µM (inactive) in the assay on RPMI-8226; 17.4 µM (inactive) in the assay with SF-539. For the same compound, the GI50 in the assay on SK-MEL-2 was 77.1 µM (inactive); in the assay with SK-MEL-5 it was 18.7 µM (inactive); in the assay with SK-OV-3 it was 53.5 µM (inactive); with U-251, 35.7 µM (inactive).
`CC(C)=CCC/C(=C\CC/C(=C\CCc1ccoc1)C(=O)O)C(=O)O`: the GI50 in the assay on 786-0, with A498, in the assay on ACHN, in the assay on CAKI-1, in the assay on IGROV-1 and with LOX IMVI was > 100 µM (inactive) throughout. Also, the GI50 with M14, in the assay on MCF7, with MDA-MB-435, in the assay on OVCAR-8, in the assay on RPMI-8226 and in the assay on SF-539 was > 100 µM (inactive) throughout. For the same compound, the GI50 with SK-MEL-28, with SK-MEL-2, with SK-MEL-5, in the assay with SK-OV-3, in the assay with SW-620 and in the assay on U-251 was > 100 µM (inactive) in each case.
